Results from patent US12570657B2, “Mesylate salts of heterocyclic cytokinins, compositions containing these derivatives and use thereof” (UNIVERZITA PALACKEHO V OLOMOUCI, priority 2020, dated 2026).
Structures can show the parent of a compound that is named as a salt.

What was measured:
[1] = test system: CEM (T-lymphoblastic leukemia); test: In vitro cytotoxicity, Calcein AM assay, CEM; format: cell-based; settings: 3-day Calcein-AM assay
From the text: (§1) Because toxic compounds adversely affect cell metabolic processes, many standard cytotoxicity assays are based on measuring the rate of metabolism of various artificial substrates. The resulting product is then quantified, for example, by spectrometry. Assays can be easily modified for use in 96-well plates, A microtiter assay based on the quantification of Calcein AM metabolism was used to evaluate the cytotoxicity of cytokinins, for example meta-topolin, ortho-topolin, kinetin, BAP or its mesylate salts, but also a number of other cytokinin mesylate derivatives according to the invention. The test is widely used in drug screening programs and in chemosensitivity testing. In living cells, Calcein AM is enzymatically hydrolyzed and the accumulation of the resulting calcein is manifested by green fluorescence. […] These cells were maintained in standard DMEM or RPMI medium (Sigma, MO, USA) supplemented with heat-inactivated fetal bovine serum (10%) with 2 mM L-glutamine and penicillin-streptomycin (1%) under standard cell culture conditions (37° C., 5% CO2 in a humid environment) and subcultured two or three times a week using a standard trypsinization procedure. Approximately 10,000 cells in 80 μl of medium were seeded in a 96-well microtiter plate. After 12 hours of incubation, the compounds to be tested were added in 20 μl aliquots. Control cultures were treated with DMSO alone. […] After 72 hours of incubation, Calcein AM solution (Molecular Probes) was added to a final concentration of 1 μg/ml and the cells were incubated for another hour.
(§2) Cytoxicity of compounds was tested on panel of cell lines of different histogenetic and species origin.

[2] = test system: cytokinin-dependent tobacco callus; test: Tobacco callus biotest (stimulation of plant cell division); format: cell-based, Nicotiana tabacum L. cv. Wisconsin 38; settings: for activity (%) [10^−5 mol · l^−1 BAP = 100%]: callus growth at concentration with highest activity, 10^−5 M BAP = 100%; for concentration with highest activity: tobacco callus fresh weight increase, four weeks
Experimental: Stimulation effect of the cytokinin mesylates was tested in tobacco callus biotest using cytokinin dependent tobacco callus. Cytokinin-dependent tobacco callus Nicotiana tabacum L. cv. […] Subcultivation was carried out every three weeks. Fourteen days before the bioassay, the callus tissue was transferred to the media without BAP. Biological activity was determined from the increase in fresh callus weight after four weeks of cultivation. Five replicates were prepared for each cytokinin concentration and the entire test was repeated twice. […] Relative activity of the compound at this concentration was calculated (Tab. 15). The activity obtained for 10^−5 M 6-benzylaminopurine (BAP) was postulated as 100%. The cytokinin bases to be tested were dissolved in dimethylsulfoxide (DMSO) and the solution brought up to 10^−3 M with distilled water. The mesylate salts were dissolved directly in distilled water.

[3] = test system: MCF-7 (breast adenocarcinoma); test: In vitro cytotoxicity, Calcein AM assay, MCF7; format: cell-based; settings: 3-day Calcein-AM assay
From the text: as §1, §2

[4] = test system: K562 (chronic myeloid leukemia); test: In vitro cytotoxicity, Calcein AM assay, K-562; format: cell-based; settings: 3-day Calcein-AM assay
From the text: as §1, §2

[5] = test system: winter wheat leaf segments; test: Senescence bioassay: retention of chlorophyll in excised winter wheat leaf tips; format: in vivo, Triticum aestivum cv. Hereward; settings: for activity (%) [10^−4 mol · l^−1 BAP = 100%]: chlorophyll retention at concentration with highest activity, 10^−4 M BAP = 100%; for concentration with highest activity: chlorophyll retention, excised wheat leaf tips, 96 h dark
Experimental: Seeds of winter wheat, Triticum aestivum cv. Hereward, were washed under running water for 24 hours and then sown on vermiculite soaked with Knop's solution. They were placed in a growth chamber at 25° C. with a 16/8 h light/dark period at 50 μmol·m^−2·s^−1. After 7 days, the first leaf was fully developed and the second leaf had started to grow. A tip section of the first leaf, approximately 35 mm long, was removed from 5 seedlings and trimmed slightly to a combined weight of 100 mg. The basal ends of the five leaf tips were placed in the wells of a microtiter polystyrene plate containing 150 μl of each tested compound solution. The entire plate was inserted into a plastic box lined with paper tissues soaked in distilled water to prevent leaf sections from drying out. After 96 h incubation in the dark at 25° C., the leaves were removed and chlorophyll extracted by heating at 80° C. for 10 min in 5 ml of 80% ethanol (v/v). The sample volume was then restored to 5 ml by the addition of 80% ethanol (v/v). The absorbance of the extract was recorded at 665 nm. In addition, chlorophyll extracts from fresh leaves and leaf tips incubated in deionised water were measured. […] Relative activity of the compound at this concentration was calculated (Tab. 3). The activity obtained for 10^−4 M 6-benzylaminopurine (BAP) was postulated as 100%. The values shown are means of five replicates and the whole experiment was repeated twice. The tested cytokinin bases were dissolved in dimethylsulfoxide (DMSO) and the solution brought up to 10^−3 M with distilled water. Cytokinin mesylate salts which are more water-soluble (BAP mesylate, meta-topolin mesylate and kinetin mesylate) could be directly dissolved to form a 10^−3 M solution in distilled water.

[6] = test system: Spring barley (variety Francin); test: Field trial: grain yield and productive tillers of spring barley after foliar spray; format: in vivo; settings: 5 uMol
Experimental: Spring barley (variety Francin) was treated in 2019 at the locality in Olomouc, sprayed with substances—marked BAP (benzylaminopurine), meta-topolin mesylate and BAP mesylate. The seed was 3.5 million germinating seeds, the experiment was established in 5 randomized replicates for each variant, the control was an untreated variant. The experiment was performed according to the GEP (Good Experimental Practice) methodology, the size of individual plots was 10 m^2. The application of the substances was carried out at a rate of 300 l/ha, in the growth phase BBCH 31-33 (beginning of peeling).

[7] = application BBCH 31-33, untreated control = 100

CC(CO)CCNc1ncnc2[nH]cnc12.CS(=O)(=O)O (racemic) [DHZ mesylate, (RS)-4-((9H-Purin Ylamino)-2-Methylbutan-1-ol) Methanesulphonate]
IC50 [1]: > 167 µM
activity (%) [10^−5 mol · l^−1 BAP = 100%] [2]: 78%
concentration with highest activity [2]: 10^−6 mol · l^−1
IC50 [3]: > 167 µM
IC50 [4]: > 167 µM
activity (%) [10^−4 mol · l^−1 BAP = 100%] [5]: 82%
concentration with highest activity [5]: 10^−4 mol · l^−1

CS(=O)(=O)O.Fc1ccc(CNc2ncnc3nc[nH]c23)c(F)c1 [2.4diFBAP mesylate]
activity (%) [10^−4 mol · l^−1 BAP = 100%] [5]: 141%
concentration with highest activity [5]: 10^−5 mol · l^−1

Fc1ccc(CNc2ncnc3nc[nH]c23)c(F)c1 [2MBAP mesylate]
activity (%) [10^−5 mol · l^−1 BAP = 100%] [2]: 121%
concentration with highest activity [2]: 10^−6 mol · l^−1
activity (%) [10^−4 mol · l^−1 BAP = 100%] [5]: 157%
concentration with highest activity [5]: 10^−4 mol · l^−1

CS(=O)(=O)O.Fc1cc(F)cc(CNc2ncnc3nc[nH]c23)c1 [3.5diFBAP mesylate]
activity (%) [10^−4 mol · l^−1 BAP = 100%] [5]: 168%
concentration with highest activity [5]: 10^−5 mol · l^−1

CS(=O)(=O)O.Clc1cccc(CNc2ncnc3nc[nH]c23)c1 [3ClBAP mesylate, 6-(3-chlorobenzylamino)purine mesylate]
activity (%) [10^−5 mol · l^−1 BAP = 100%] [2]: 101%
activity (%) [10^−4 mol · l^−1 BAP = 100%] [5]: 82%

CS(=O)(=O)O.Fc1cccc(CNc2ncnc3nc[nH]c23)c1 [3FBAP mesylate, 6-(3-fluorobenzylamino)purine mesylate]
activity (%) [10^−5 mol · l^−1 BAP = 100%] [2]: 137%
IC50 ([3]; mesylate): > 167 µM
IC50 ([4]; mesylate): 136 µM
activity (%) [10^−4 mol · l^−1 BAP = 100%] [5]: 210%

CS(=O)(=O)O.Fc1ccc(CNc2ncnc3nc[nH]c23)cc1 [4FBAP mesylate, 6-(4-fluorobenzylamino)purine mesylate]
activity (%) [10^−5 mol · l^−1 BAP = 100%] [2]: 126%
activity (%) [10^−4 mol · l^−1 BAP = 100%] [5]: 98%

COc1ccc(CNc2ncnc3nc[nH]c23)cc1 [4MeOBAP mesylate, 6-(4-methoxybenzylamino)purine mesylate]
IC50 ([4]; mesylate): 118 µM

Fc1ccc(CNc2ncnc3nc[nH]c23)c(F)c1 [6-(2.4-difluorobenzylamino)purine (2.4diFBAP)]
activity (%) [10^−4 mol · l^−1 BAP = 100%] [5]: 139%
concentration with highest activity [5]: 10^−5 mol · l^−1

Fc1cc(F)cc(CNc2ncnc3nc[nH]c23)c1 [6-(3.5-difluorobenzylamino)purine]
activity (%) [10^−4 mol · l^−1 BAP = 100%] [5]: 156%
concentration with highest activity [5]: 10^−5 mol · l^−1

C/C(=C/CNc1ncnc2[nH]cnc12)CO [cZ mesylate, (Z)-4-((9H-Purin Ylamino)-2-Methylbut-2-En-1-ol) Methanesulphonate]
IC50 [1]: > 167 µM
IC50 [3]: > 167 µM

CS(=O)(=O)O.Oc1cccc(CNc2ncnc3[nH]cnc23)c1 [m-topolin mesylate]
Length of plants ([6]; application BBCH 31-33): 83.1 cm
Medium tillers (number) ([6]; application BBCH 31-33): 1.25
Number of spikes per square meter ([6]; application BBCH 31-33): 721.6
SUM of tillers ([6]; application BBCH 31-33): 5.5
Strong tillers (number) ([6]; application BBCH 31-33): 2.45
Weak tillers (number) ([6]; application BBCH 31-33): 1.8
Grain yield (t/ha) at 14% humidity ([6]; application BBCH 31-33, spring barley): 8.01 t/ha
Grain yield, % compared to control [6, 7]: 108.03%
Length of plants, % compared to control [6, 7]: 100.36%
Medium tillers, % compared to control [6, 7]: 59.52%
Number of spikes per square meter, % compared to control [6, 7]: 106.62%
SUM of tillers, % compared to control [6, 7]: 95.65%
Strong tillers, % compared to control [6, 7]: 136.11%
Weak tillers, % compared to control [6, 7]: 97.3%
